Columns and labels:
Format in all cases: functional
Design in all cases: scale not given: the % may be the effect or the level left
Plasmodium yoelii [1] = experiment: Antimalarial activity against multidrug-resistant Plasmodium yoelii in Swiss mice (Mus musculus) as reduced parasitaemia after 4 days at 96 mg/kg peroral dose; conditions: route oral
Plasmodium yoelii [2] = experiment: Antimalarial activity as reduced parasitemia at day 4 against multidrug-resistant Plasmodium yoelii in Swiss mice (Mus musculus) at 96 mg/kg Intramuscular dose
Plasmodium yoelii [3] = experiment: Antimalarial activity against multidrug-resistant Plasmodium yoelii in Swiss mice (Mus musculus) as reduced parasitaemia after peroral 48 mg/kg dose for 4 days; conditions: route oral

| SMILES | Activity (Plasmodium yoelii [1]) | Activity (Plasmodium yoelii [2]) | Activity (Plasmodium yoelii [3]) |
| --- | --- | --- | --- |
| C=C(c1cccc2ccccc12)C1CCOC2(CCCCC2)OO1 (stereo not given) | 17.16% | 22.25% | – |
| C=C(c1ccc(Cl)cc1)C1CCOC2(OO1)C1CC3CC(C1)CC2C3 (stereo not given) | 58.38% | 12.18% | – |
| C=C(c1ccc(-c2ccccc2)cc1)C1CCOC2(CCC(=O)CC2)OO1 (stereo not given) | 98.49% | 100% | – |
| C=C(c1ccccc1)C1CCOC2(CCC(O)CC2)OO1 (stereo not given) | 53.59% | 21.39% | – |
| C=C(c1ccc(-c2ccccc2)cc1)C1CCOC(C)(C)OO1 (stereo not given) | 98.22% | 42.13% | – |
| C=C(c1ccc(-c2ccccc2)cc1)C1CCOC2(CCCCC2)OO1 (stereo not given) | 91.36% | 24.69% | – |
| C=C(c1ccc(-c2ccccc2)cc1)C1CCOC2(CCC(O)CC2)OO1 (stereo not given) | 84.13% | 75.47% | – |
| C=C(c1ccccc1)C1CCOC(C)(C)OO1 (stereo not given) | 92.38% | 87.31% | – |
| C=C(c1ccc(Cl)cc1)C1CCOC2(CCCCC2)OO1 (stereo not given) | 24.69% | 46.91% | – |
| C=C(c1ccc(-c2ccccc2)cc1)C1CCOC2(CCCC2)OO1 (stereo not given) | 64.38% | 42.36% | – |
| C=C(c1ccccc1)C1CCOC2(CCCC2)OO1 (stereo not given) | 18.21% | 58.71% | – |
| C=C(c1ccccc1)C1CCOC2(CCC(=O)CC2)OO1 (stereo not given) | 72.02% | 36.6% | – |
| C=C(c1cccc2ccccc12)C1CCOC2(OO1)C1CC3CC(C1)CC2C3 (stereo not given) | 38.27% | 11.11% | – |
| C=C(c1ccccc1)C1CCOC2(CCCCC2)OO1 (stereo not given) | 35.8% | 9.38% | – |
| C=C(c1ccc(Cl)cc1)C1CCOC(C)(C)OO1 (stereo not given) | 48.77% | 57.64% | – |
| C=C(c1ccc(Cl)cc1)C1CCOC2(CCC(O)CC2)OO1 (stereo not given) | 54.59% | 11.47% | – |
| C=C(c1ccc(Cl)cc1)C1CCOC2(CCCC2)OO1 (stereo not given) | 27.16% | 6.17% | – |
| C=C(c1cccc2ccccc12)C1CCOC(C)(C)OO1 (stereo not given) | 70.37% | 32.1% | – |
| C=C(c1ccc(Cl)cc1)C1CCOC2(CCC(=O)CC2)OO1 (stereo not given) | 23.36% | 100% | – |
| C=C(c1ccc(-c2ccccc2)cc1)C1CCOC2(OO1)C1CC3CC(C1)CC2C3 (stereo not given) | 44.78% | 31.98% | – |
| C=C(c1ccccc1)C1CCOC2(OO1)C1CC3CC(C1)CC2C3 (stereo not given) | 57.36% | 27.41% | – |
| C=C(c1cccc2ccccc12)C1CCOC2(CCCC2)OO1 (stereo not given) | 49.75% | 19.8% | – |
| CCO[C@H]1O[C@@H]2O[C@@]3(C)CC[C@H]4[C@H](C)CC[C@@H]([C@H]1C)[C@@]24OO3 [ARTEMOTIL] | – | – | 100% |
